# Experimental data taken from ChEMBL document CHEMBL1139830, “Glycosidic juvenogens: derivatives bearing alpha,beta-unsaturated ester functionalities” (2007).
# Calls of active or inactive are those of the source. The calls are words filed in the database; no cut-off is given here.
# System: Pyrrhocoris apterus
# Assay: Juvenilizing effect assessed as inhibition of metamorphosis per individual in red firebug by drinking assay
# Assay type: functional
SMILES,Activity,ID50
CCOC(=O)/C=C(/C)COc1ccc(C[C@H]2CCCC[C@@H]2O[C@@H]2O[C@H](CO)[C@@H](O)[C@H](O)[C@H]2O)cc1 (stereo in doubt; Z-14b),inactive,
CCOC(=O)/C=C(\C)COc1ccc(C[C@@H]2CCCC[C@@H]2O[C@@H]2O[C@H](CO)[C@@H](O)[C@H](O)[C@H]2O)cc1,,0.0021 µg
CCOC(=O)/C=C(\C)COc1ccc(C[C@H]2CCCC[C@@H]2O[C@@H]2O[C@H](CO)[C@H](O)[C@H](O)[C@H]2O)cc1,,1.9 µg
CCOC(=O)/C=C(\C)COc1ccc(C[C@H]2CCCC[C@@H]2O[C@@H]2O[C@H](CO)[C@@H](O)[C@H](O)[C@H]2O)cc1,,1.3 µg
CCOC(=O)/C=C(\C)COc1ccc(C[C@@H]2CCCC[C@@H]2O)cc1,,0.05 µg
CCOC(=O)/C=C(/C)COc1ccc(C[C@H]2CCCC[C@@H]2O)cc1 (stereo in doubt; Z-2a),inactive,
CCOC(=O)/C=C(/C)COc1ccc(C[C@H]2CCCC[C@@H]2O[C@@H]2O[C@H](CO)[C@H](O)[C@H](O)[C@H]2O)cc1,,3 µg
CCOC(=O)/C=C(\C)COc1ccc(C[C@@H]2CCCC[C@@H]2O[C@@H]2O[C@H](CO)[C@H](O)[C@H](O)[C@H]2O)cc1,,0.11 µg
CCOC(=O)/C=C(/C)COc1ccc(C[C@H]2CCCC[C@@H]2O)cc1 (stereo in doubt; Z-2b),inactive,
CCOC(=O)/C=C(/C)COc1ccc(C[C@@H]2CCCC[C@@H]2O[C@@H]2O[C@H](CO)[C@@H](O)[C@H](O)[C@H]2O)cc1,,1.1 µg
CCOC(=O)/C=C(/C)COc1ccc(C[C@@H]2CCCC[C@@H]2O[C@@H]2O[C@H](CO)[C@H](O)[C@H](O)[C@H]2O)cc1,,2.3 µg
CCOC(=O)/C=C(/C)COc1ccc(C[C@@H]2CCCC[C@@H]2O)cc1,,18 µg
CCOC(=O)/C=C(/C)COc1ccc(C[C@H]2CCCC[C@@H]2O[C@@H]2O[C@H](CO)[C@@H](O)[C@H](O)[C@H]2O)cc1 (stereo in doubt; Z-14a),inactive,
CCOC(=O)/C=C(\C)COc1ccc(C[C@H]2CCCC[C@@H]2O)cc1,,0.32 µg
